Earlier results on three molecules are cited in patent publication US20130317108A1, “DERMATOLOGICAL FOAMS OBTAINED FROM A GEL OR SUSPENSION CONTAINING A COMBINATION OF ADAPALENE AND BENZOYL PEROXIDE” (GALDERMA RESEARCH & DEVELOPMENT, priority 2010, published 2013).

Where two headings read alike, the source gives them in different places.

For data set [1] the following is noted: 40° C.
The conditions of data set [2]: in suspension (dispersed form) in water and propylene glycol, 90 days of storage.
For data set [3] the following is noted: in presence of benzoyl peroxide formulation.

Take `O=C(OOC(=O)c1ccccc1)c1ccccc1` [benzoyl peroxide]: the “degradation time (half-life time)” value is listed as 1.4 days in data set [1] (in PEG 400 (0.5 mg/g)), 29 days in data set [1] (in ethanol) and 53 days in data set [1] (in propylene glycol). Further, the degradation on storage entry in data set [2] was “not degraded”.
On to `CC1=C(/C=C/C(C)=C/C=C/C(C)=C/C(=O)O)C(C)(C)CCC1` [tretinoin], for which the figures for the retinoid degraded in data set [3] (within 2 hours) and in data set [3] (within 24 hours) were 50% and 95%, respectively.
For `COc1ccc(-c2ccc3cc(C(=O)O)ccc3c2)cc1C12CC3CC(CC(C3)C1)C2` [adapalene, 6-[3-(1-Adamantyl)-4-methoxyphenyl]-2-naphthoic acid], the retinoid degraded entry in data set [3] (within 24 hours) is recorded as “no degradation”.
